In article PMC8401465, “In Vitro Testing of Alternative Synthetic and Natural Antiparasitic Compounds against the Monogenean Sparicotyle chrysophrii” (Pathogens, 2021):
Like-named read-outs stand apart in the source and are kept apart here.

How the values were obtained:
[1] = tested on: Sparicotyle chrysophrii adults; assay: microbe, parasite or virus in culture; settings: for LC20 (95% CI), toxicity level for adult S. chrysophrii: 20% mortality; for LC50: read-out: LC50 (95% CI), toxicity level for adult S. chrysophrii; for LC80 (95% CI), toxicity level for adult S. chrysophrii: 80% mortality; for b (SE), slope of dose–response model / e (SE), midpoint of dose–response model: Weibull type 2, c = 0, d = 1, mortality at 4 h post-exposure; for fold less toxic for S. chrysophrii than eucalyptol and garlicin 80%: comparison with eucalyptol and garlicin 80%; for fold lower toxicity for S. chrysophrii than curcumin: comparison with curcumin
Protocol: Subsequently, the monogeneans (n = 6, in triplicate) were exposed to a range of seven concentrations tailored according to each compound’s activity observed in preliminary tests. The range for each compound was scaled down to an appropriate order of magnitude so that each compound reached 100% mortality at 4 h post-exposure (Table 1).
For the dose–response curve fitting, the drc package for R (v4.0.4) was used. An appropriate nonlinear regression model was selected between log-logistic and Weibull type models, based on the Akaike information criterion (AIC) and lack-of-fit test criteria through the use of mselect function. The best scoring model was Weibull type 2 model (asymmetrical) with lower and upper limits fixed to 0 and 1, respectively, as mortality in all assays reached 100%. […] Model parameters and estimated lethal doses (20%, 50%, and 80%) were calculated with standard errors and 95% confidence intervals, based on the delta method, respectively, and adjusted for simultaneous inference through multcomp package. Dose–response curves were visualised using ggplot2 library.

Vibrio harveyi = assay: Bactericidal activity (MTT), Vibrio harveyi; assay type: cell-based; settings: for bactericidal activity against V. harveyi: synthetic compounds, at increased concentrations; for inhibition at 0.1 µM / inhibition at 1 µM / inhibition at 10 µM: Vibrio harveyi; for antimicrobial activity against V. harveyi: p < 0.05
Protocol: (§1) Two bacterial fish pathogens, Vibrio harveyi and V. anguillarum were used to test the bactericidal activity of the target compounds, being previously isolated and identified as described in [65]. Lab strains were maintained at −20 °C in Tryptone Soy Broth (TSB, Difco Laboratories, Inc., Detroit, MI, USA) supplemented with 1% (w/v) NaCl (TSB1) and 50% (v/v) glycerol. […] Bacteria in TSB medium were then cultured at the same temperature with continuous shaking (100 rpm) for 24 h. Exponentially grown bacteria were resuspended in sterile PBS and adjusted to the concentration of 10^8 colony forming units (cfu)/mL. Each target compound (20 μL; concentrations 0.1, 1, and 10 µM) was added (in triplicates) to the wells of a flat-bottom 96-well plate, except for the positive control that consisted of 0.5% DMSO in PBS. Aliquots of 20 μL of the previously cultured bacteria were added, and the plate was incubated for 5 h at 25 °C. […] The plate was then centrifuged (4500 rpm, 10 min) and the precipitate dissolved in 200 μL of DMSO. The solution (100 μL) from each well was transferred to another flat-bottom 96-well plate. The absorbance of the dissolved formazan was measured at 570 nm. Bactericidal activity was expressed as percentage of nonviable bacteria, calculated as the difference between absorbance of surviving bacteria compared to the absorbance of bacteria in positive controls (100%).

Vibrio anguillarum = assay: Bactericidal activity (MTT), Vibrio anguillarum; assay type: cell-based; settings: for antibacterial activity against V. anguillarum: among the natural compounds; for antibacterial activity against V. anguillarum / antimicrobial activity against V. anguillarum: p < 0.05; for inhibition at 0.1 µM / inhibition at 1 µM / inhibition at 10 µM: Vibrio anguillarum
Protocol: as §1

[2] = tested on: Sparicotyle chrysophrii adults; assay: microbe, parasite or virus in culture; settings: for mortality at 1000 µM: Sparicotyle chrysophryii
Protocol: Firstly, the adult monogeneans were exposed to a range of four concentrations of tested compounds encompassing the full dose–response range; each compound stock at 10 mM was serially diluted 10 (1 mM), 10^2 (0.1 mM), 10^3 (0.01 mM), and 10^4 (1 µM) times. […] Ten monogeneans per well (in triplicate) were added to 2 mL sterile seawater (SW) in 6-well plates, checked at the stereomicroscope for visible signs of mechanical damage, and exposed to selected concentrations in the dark at room temperature (Table 1). The number of live/dead parasites was recorded under the stereomicroscope at 1, 4, 12, and 24 h post-exposure. S. chrysophrii was considered to be alive if it performed any type of movement autonomously or 5 s after gentle probing with a dissection needle. Negative controls comprised the seawater with up to 0.5% of DMSO in total volume, the latter used as a solvent for each compound.

[3] = 50% mortality, 4 h post-exposure
[4] = 0.1 µM, 5 h at 25 °C, read-out: Bactericidal activity (%)
[5] = 1 µM, 5 h at 25 °C, read-out: Bactericidal activity (%)
[6] = 10 µM, 5 h at 25 °C, read-out: Bactericidal activity (%)
[7] = 5 h, read-out: Bactericidal activity (%)

Row | Molecule | LC20 (95% CI), toxicity level for adult S. chrysophrii ([1]; 4 h post-exposure) | LC50 [1, 3] | LC80 (95% CI), toxicity level for adult S. chrysophrii ([1]; 4 h post-exposure) | b (SE), slope of dose–response model [1] | e (SE), midpoint of dose–response model [1] | inhibition (Vibrio harveyi; [4]) | inhibition (Vibrio harveyi; [5]) | inhibition (Vibrio harveyi; [6]) | inhibition (Vibrio anguillarum; [4]) | inhibition (Vibrio anguillarum; [5]) | inhibition (Vibrio anguillarum; [6]) | potency / effect against V. anguillarum as judged in the discussion (Vibrio anguillarum) | inhibition at 0.1 µM (Vibrio harveyi; [4]) | inhibition at 1 µM (Vibrio harveyi; [5]) | inhibition at 10 µM (Vibrio harveyi; [6]) | inhibition at 0.1 µM (Vibrio anguillarum; [4]) | inhibition at 1 µM (Vibrio anguillarum; [5]) | inhibition at 10 µM (Vibrio anguillarum; [6]) | antimicrobial activity against V. harveyi (Vibrio harveyi; 10 µM) | further results
1 | 1R-Camphor | 0.71 (0.53–0.89) mM | 910 µM | 1.1 (0.94–1.26) mM | 4.54 (0.91) | 0.99 (0.05) | -23.6 ± 2.6% | 7.7 ± 10.7% | 9.3 ± 7.4% | -38.8 ± 22% | -27.8 ± 19% | -17.4 ± 9.3% | – | – | – | – | – | – | – | – | fold less toxic for S. chrysophrii than eucalyptol and garlicin 80% [1]: approximately 1.2
2 | CC(C)=C[C@@H]1[C@@H](C(=O)O)C1(C)C (relative stereo) [(+)-trans-Chrysanthemic acid] | 0.58 (0.43–0.74) mM | 840 µM | 1.1 (0.79–1.41) mM | 3.12 (0.69) | 0.94 (0.07) | -47.7 ± 5.9% | -25.4 ± 14.6% | 13.2 ± 6.5% | -1.4 ± 13% | 8.15 ± 16.3% | 32 ± 9% | the effect was observed only against V. anguillarum | – | – | – | – | – | – | – | fold less toxic for S. chrysophrii than eucalyptol and garlicin 80% [1]: approximately 1.2; antibacterial activity against V. anguillarum (Vibrio anguillarum): strongest antibacterial activity
3 | Oc1c(Cl)cc(Cl)cc1Sc1cc(Cl)cc(Cl)c1O [Bithionate sodium, 2,2′-sulfanediylbis(4,6-dichlorophenolate), reference compound] | 0.003 (0.002–0.005) mM | 5 to 10 µM | 0.01 (0.01–0.01) mM | 1.93 (0.36) | 0.01 (0.001) | -8.8 ± 1.8% | 3.5 ± 11.6% | 40 ± 0.7% | 4.9 ± 11.8% | 49.2 ± 11.6% | 96.4 ± 1.7% | – | – | – | – | – | – | – | – | bactericidal activity against V. harveyi (Vibrio harveyi): significant bactericidal activity; antimicrobial activity against V. anguillarum (Vibrio anguillarum; 10 µM): best antimicrobial activity
4 | O=c1ccc2ccccc2o1 [Coumarin] | – | – | – | – | – | – | – | – | – | – | – | – | -33.4 ± 3.9% | -21.2 ± 13.3% | -1.9 ± 7.6% | 1.5 ± 8.38% | 13.2 ± 13.4% | 17.3 ± 5% | – | mortality at 1000 µM ([2]; 24 h): 100%; antibacterial activity against V. anguillarum (Vibrio anguillarum): strongest antibacterial activity
5 | C=CCSCC=C [Diallyl sulphide] | – | – | – | – | – | – | – | – | – | – | – | – | -36.6 ± 6.8% | -36.4 ± 7.9% | -1.6 ± 0.7% | -11.3 ± 24.8% | -5.8 ± 11.7% | 46.8 ± 4% | – | mortality at 1000 µM ([2]; 24 h): 100%; antimicrobial activity against V. anguillarum (Vibrio anguillarum; 10 µM): best antimicrobial activity
6 | CC12CCC(CC1)C(C)(C)O2 [Eucalyptol] | 0.5 (0.38–0.63) mM | – | 0.83 (0.71–0.94) mM | 3.99 (0.7) | 0.74 (0.03) | – | – | – | – | – | – | ineffective against V. anguillarum | -2.7 ± 8.7% | -1.9 ± 12.3% | 50.3 ± 6.8% | -31.7 ± 156% | -34.1 ± 10.5% | 23.6 ± 3.1% | significant antimicrobial activity | LC50 ([1]; Sparicotyle chrysophryii, 4 h): 670 µM; fold lower toxicity for S. chrysophrii than curcumin [1]: approximately 3; potency / effect against V. harveyi as judged in the discussion (Vibrio harveyi): highest anti-Vibrio harveyi effect among tested natural compounds
7 | C=CCSSCC=C [Garlicin 80%] | 0.4 (0.27–0.53) mM | 600 µM | 0.81 (0.66–0.95) mM | 2.79 (0.49) | 0.68 (0.04) | 20.9 ± 19.9% | 28.7 ± 6.2% | 42 ± 1.3% | -110 ± 84.2% | -46 ± 17.2% | -52.1 ± 31.4% | ineffective against V. anguillarum | – | – | – | – | – | – | significant antimicrobial activity | fold lower toxicity for S. chrysophrii than curcumin [1]: approximately 3; potency / effect against V. harveyi as judged in the discussion (Vibrio harveyi): highest anti-Vibrio harveyi effect among tested natural compounds
8 | C[C@H]1C(=O)O[C@@H]2CCN3CC=C(COC(=O)[C@](C)(O)[C@]1(C)O)[C@H]23 [Monocrotaline] | – | – | – | – | – | – | – | – | – | – | – | – | – | – | – | – | – | – | significant antimicrobial activity | mortality at 1000 µM ([2]; 1 h): 100%; inhibition at 0.1 µM (Vibrio harveyi; [7]): -4.9 ± 24.9%; inhibition at 1 µM (Vibrio harveyi; [7]): 18.2 ± 10.9%; inhibition at 10 µM (Vibrio harveyi; [7]): 40.1 ± 4.1%; inhibition at 0.1 µM (Vibrio anguillarum; [7]): -73 ± 56.1%; inhibition at 1 µM (Vibrio anguillarum; [7]): -46.9 ± 32%; inhibition at 10 µM (Vibrio anguillarum; [7]): 17.9 ± 0.6%
9 | CCN(CC)C(=O)c1cccc(C)c1 [N,N-diethyl-M-toluamide, reference compound] | – | – | – | – | – | – | – | – | – | – | – | – | – | – | – | – | – | – | – | mortality ([2]; highest concentration (1 mM), already after 1 h): 100%; inhibition (Vibrio harveyi; 0.1 µM): -0.9 ± 8.7%; inhibition (Vibrio harveyi; 1 µM): 4.5 ± 16.7%; inhibition (Vibrio harveyi; 10 µM): 13.7 ± 0.6%; bactericidal activity against V. harveyi (Vibrio harveyi): significant bactericidal activity; inhibition (Vibrio anguillarum; 0.1 µM): -61.9 ± 29%; inhibition (Vibrio anguillarum; 1 µM): -28.5 ± 24.1%; inhibition (Vibrio anguillarum; 10 µM): 9.1 ± 8.5%
